# Data from article PMC11259170, “Small-molecule probe for IBD risk variant GPR65 I231L alters cytokine signaling networks through positive allosteric modulation” (Science Advances, 2024).
# Like-named read-outs stand apart in the source and are kept apart here.
# Assays:
# hGPR65 = biological target: T1, hGPR65 (Homo sapiens, UniProt Q8IYL9); experiment: cAMP detection in HeLa expression cell line, hGPR65; assay type: cell-based; settings: for EC50 / Emax: NA = no activity; for Emax: HeLa, relative to 100uM forskolin (100%) and DMSO (0%), read-out: hGPR Max Activity %; for cAMP production relative to BRD2813, hGPR65: pH 7.2
# T1 construct: expressed in transfected cells; host or cells: HeLa (ATCC CCL-2), lentiviral transduction, pLX317
# T1 sequence (Q8IYL9 whole entry): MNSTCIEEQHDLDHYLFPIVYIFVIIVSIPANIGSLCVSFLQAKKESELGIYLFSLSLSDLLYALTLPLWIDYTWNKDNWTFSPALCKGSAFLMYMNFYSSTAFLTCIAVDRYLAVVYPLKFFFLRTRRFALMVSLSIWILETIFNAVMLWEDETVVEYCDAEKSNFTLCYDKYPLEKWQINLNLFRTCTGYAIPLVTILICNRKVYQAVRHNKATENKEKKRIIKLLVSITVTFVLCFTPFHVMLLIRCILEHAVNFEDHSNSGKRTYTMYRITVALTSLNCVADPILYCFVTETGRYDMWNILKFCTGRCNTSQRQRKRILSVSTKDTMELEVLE
# Description: (§1) HeLa stable expression cell lines were produced by lentiviral transduction. Briefly, lentiviral plasmids for each GPCR with a C-terminal V5 Tag ([…]) were made in a pLX317 backbone using competent Escherichia coli (New England Biolabs, C3050H). Lenti-X 293 T (Takara, 632810) cells were transfected with the lentiviral plasmids to produce virus. Low-passage HeLa cells (American Type Culture Collection, CCL-2) were then transduced with lentivirus. After 48 hours, HeLa cells were cultured under selection with puromycin (3 μg/ml) and allowed to recover and expand before storing stocks in liquid nitrogen.
# (§2) cAMP was measured in cells using the Lance Ultra cAMP Kit. HeLa cells were cultured under puromycin (3 μg/ml) selection. One day before the experiment, cells were seeded in T75 flasks and allowed to adhere overnight. On the day of the experiment, cells were washed twice with Dulbecco’s PBS and lifted using prewarmed 1× versene solution (Gibco, 15040066). Cells were counted in HBSS (Gibco, 14025092) and then resuspended in stimulation buffer prepared according to the manufacturer’s instructions and adjusted to pH 7.2 using 1 M sodium hydroxide. Cells were added to the plate at a density of 1500 cells per well in white opaque 384-well assay ready microplates containing 100 nl of 10 mM compound in DMSO. Cells were stimulated for 30 min at RT, then lysed and incubated with detection reagents for 1 hour in the dark at RT. Plates were read on BMG Labtech PHERAstar FSX (excitation, 337 nm; emission, 620 and 665 nm). Data analysis was performed using GraphPad Prism.
# [1] = test system: GFP-expressing HeLa cells; experiment: cAMP detection in HeLa expression cell line, GFP control; assay type: cell-based, human; settings: Homo sapiens, HeLa; for Emax: relative to 100uM forskolin (100%) and DMSO (0%), read-out: GFP Max Activity %
# Description: as §1, §2
# mGPR65 = biological target: T2, mGPR65 (Mus musculus, UniProt Q61038); experiment: cAMP detection in HeLa expression cell line, mGPR65; assay type: cell-based; settings: for Emax: HeLa, relative to 100uM forskolin (100%) and DMSO (0%), read-out: mGPR Max Activity %; for cAMP production relative to BRD2813, mGPR65: pH 7.2
# T2 construct: expressed in transfected cells; host or cells: HeLa (ATCC CCL-2), lentiviral transduction, pLX317
# T2 sequence (Q61038 whole entry): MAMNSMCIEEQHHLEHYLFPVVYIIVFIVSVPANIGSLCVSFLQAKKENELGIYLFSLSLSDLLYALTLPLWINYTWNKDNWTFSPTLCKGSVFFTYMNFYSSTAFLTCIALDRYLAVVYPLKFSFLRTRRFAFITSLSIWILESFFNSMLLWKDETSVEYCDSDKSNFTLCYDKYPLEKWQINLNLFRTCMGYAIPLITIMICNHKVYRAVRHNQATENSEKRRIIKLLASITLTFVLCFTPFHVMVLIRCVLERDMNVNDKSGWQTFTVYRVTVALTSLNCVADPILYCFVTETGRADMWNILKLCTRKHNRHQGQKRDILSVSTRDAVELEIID
# Description: as §1, §2
# [2] = 1st hGPR column pair, read-out: hGPR EC50
# [3] = 1st GFP column pair, NA = no activity
# [4] = 2nd hGPR column pair, read-out: hGPR EC50
# [5] = 1st mGPR column pair, NA = no activity, read-out: mGPR EC50
# [6] = 2nd mGPR column pair, NA = no activity, read-out: mGPR EC50
# [7] = 2nd mGPR column pair, NA = no activity
# [8] = 2nd GFP column pair, NA = no activity
# [9] = mGPR EC50 (uM), NA = no activity
Compound,EC50 (hGPR65; [2]) [µM],Emax (hGPR65; 1st hGPR column pair) [%],"EC50 [1, 3] [µM]","Emax [1, 3] [%]",EC50 (hGPR65; [4]) [µM],Emax (hGPR65; 2nd hGPR column pair) [%],EC50 (mGPR65; [5]) [µM],EC50 (mGPR65; [6]) [µM],Emax (mGPR65; [7]) [%],Emax (mGPR65; NA = no activity) [%],"EC50 [1, 8] [µM]","Emax [1, 8] [%]",further results
COCc1ccc(-c2cc(O)n3ncc(C(=O)Nc4ccc(NC(C)=O)cc4)c3n2)cc1 [BRD9998],17.6,1.34,91.8,3.25,,,,,,,,,
Cc1ccc(NC(=O)c2cnn3c(O)cc(-c4ccc(N5CCOCC5)c(Cl)c4)nc23)cc1 [BRD5062],1.07,74.5,24.7,3.17,0.851,71.6,0.46,0.284,55.1,50.8,11.4,1.01,
Cc1ccc(NC(=O)c2cnn3c(O)cc(-c4ccc(C(N)=O)cc4)nc23)cc1 [BRD5082],,0,38.5,14.2,,,,,,4.93,17.9,7.17,"cAMP production relative to BRD2813, hGPR65 (hGPR65): eliminated all cAMP activity; EC50 (mGPR65; [9]): 12.3 µM; cAMP production relative to BRD2813, mGPR65 (mGPR65): eliminated all cAMP activity"
CC(C)OCc1ccc(-c2cc(O)n3ncc(C(=O)Nc4ccccc4)c3n2)cc1 [BRD5060],3.72,94.5,47,5.52,10.8,109,2.07,1.62,48.6,64.4,78.1,2.12,
Cc1ccc(NC(=O)c2cnn3c(O)cc(-c4ccc(C(F)(F)F)cc4)nc23)cc1 [BRD5668],0.114,77,,,0.587,70.8,3.49,6.28,-22.2,-22.7,0.183,1.82,
Cc1ncc(NC(=O)c2cnn3c(O)cc(-c4ccc(COC(C)C)cc4)nc23)cn1 [BRD5072],8.18,59.1,6.88,3.5,6.93,48.2,4.79,5.04,49,51.1,0.376,1.42,
Cc1ccc(NC(=O)c2cnn3c(O)cc(-c4ccc(-c5ccccc5)cc4)nc23)cc1 [BRD8716],0.171,79.2,7.3,1.95,0.284,72.4,0.368,0.528,33.1,40.2,5.6,1.51,potency and total cAMP production relative to BRD2813 (hGPR65; receptor not given): improved potency but had little effect on total cAMP production
Cc1ccc(NC(=O)c2cnn3c(O)cc(-c4ccc(N5CCN(C)CC5)cc4)nc23)cc1 [BRD7215],,48.2,,,,57.7,,,48.7,57.8,63.5,7.18,"EC50 (hGPR65; hGPR EC50 (uM)): 2.74 µM; EC50 (hGPR65; hGPR EC50): 4.39 µM; cAMP production relative to BRD2813, hGPR65 (hGPR65): decreasing cAMP production; EC50 (mGPR65; mGPR EC50 (uM), 2nd mGPR column pair, NA = no activity): 1.1 µM; EC50 (mGPR65; [9]): 0.161 µM; cAMP production relative to BRD2813, mGPR65 (mGPR65): increasing activity"
Cc1ccc(NC(=O)c2cnn3c(O)cc(-c4ccc(N5CCOCC5)cc4)nc23)cc1 [BRD4390],0.703,73.5,,,0.265,76.8,0.403,1.07,26.8,26.6,11.7,2.2,
Cc1ccc(NC(=O)c2cnn3c(O)cc(-c4ccc(C(=O)N(C)C)cc4)nc23)cc1 [BRD5084],2,39.1,11.5,5.15,1.23,40.2,2.98,1.63,31.2,32.1,33.6,7.64,
Cc1n[nH]c(C)c1CCc1cc(O)n2ncc(C(=O)Nc3ccc(Cl)cc3)c2n1 [BRD1303],,,38.6,5.8,,,15.9,,,10.7,,,
O=C(O)c1cnn2c(O)cc(-c3ccc(F)cc3)nc12 [BRD7884],,,9.18,3.25,,,,,,,,,
Cc1ccc(NC(=O)c2cnn3c(O)cc(Cc4ccc5ccccc5c4)nc23)cc1 [BRD7330],,,,,,,,,,,,,"Emax (mGPR65; first pair): 11.6%; EC50 (mGPR65; SAR cAMP assay, first EC50/Max pair, read-out: mGPR EC50): 0.383 µM; EC50 ([1]; SAR cAMP assay, first EC50/Max pair of GFP control columns): 2.32 µM; Emax ([1]; first pair): 1.96%"
Cc1ccc(NC(=O)c2cnn3c(O)cc(-c4ccc(N5CCCC5)cc4)nc23)cc1 [BRD4336],8.86,14.5,13.8,9.65,,,,,,,,,
COCc1ccc(-c2cc(O)n3ncc(C(=O)NC4CCOCC4)c3n2)cc1 [BRD0202],,,15.6,6.11,,,,,,,,,
CCN(CC)C(=O)c1cnn2c(O)cc(-c3ccc(COC)cc3)nc12 [BRD7582],2.64,4.89,6.33,10.8,,,,,,,,,
O=C(O)c1cnn2c(O)cc(-c3ccccc3)nc12 [BRD3374],,,3.78,4.66,,,,,,,,,
O=C(Nc1ccccc1)c1cnn2c(O)cc(COc3ccccc3)nc12 [BRD5802],89.8,55.7,41.4,5.04,,,,,,,,,
COCc1ccc(-c2cc(O)n3ncc(C(=O)Nc4ccccc4C)c3n2)cc1 [BRD2974],,,3.66,19.4,,,26.4,,,8.27,,,
COc1ncccc1-c1cc(O)n2ncc(C(=O)Nc3ccc(Cl)cc3)c2n1 [BRD8007],,,6.14,6.72,,,2.17,,,20,,,
CCn1cc(Cl)c(-c2cc(O)n3ncc(C(N)=O)c3n2)n1 [BRD8068],,,52.9,40.7,,,16.4,,,13.4,,,
Cc1ccc(NC(=O)c2cnn3c(O)cc(-c4ccc(N5CCN(C)CC5)c(Cl)c4)nc23)cc1 [BRD5068],1.76,53.1,,,2.82,36.9,0.613,1.04,66.5,71,,,
COCc1ccc(-c2cc(O)n3ncc(C(=O)Nc4ccc(C(=O)N(C)C)cc4)c3n2)cc1 [BRD1926],34.1,11,,,,,21.5,,,28.4,,,
Cc1ccc(NC(=O)c2cnn3c(O)cc(-c4ccc(C(=O)NC(C)C)cc4)nc23)cc1 [BRD5085],2.75,46.6,,,2.82,31.2,0.441,4.17,32.7,98.4,,,
COCc1ccc(-c2cc(O)n3ncc(C(=O)Nc4cccc(C)c4)c3n2)cc1 [BRD1946],4.89,80.4,,,4.97,76.2,0.501,1.51,57.2,63.6,,,
